# From patent US20090036448A1, “PYRIMIDINE DERIVATIVES AND METHODS OF TREATMENT RELATED TO THE USE THEREOF” (TAISHO PHARMECUTICAL CO., LTD., priority 2004, published 2009)
# Structures can show the parent of a compound that is named as a salt.
# Biological target: MCH receptor (Homo sapiens, UniProt Q99705)
# Assay: FLIPR/FDSS6000 functional assay: intracellular Ca2+ changes evoked by MCH
# Format: cell-based
# Settings: antagonist activity, 50 nM of MCH, [Ca2+]i by FLIPR or FDSS; read-out: IC50
# Source text: Subsequently, a functional based assay was used to confirm the lead hits, referred to as FLIPR™ (the Fluorometric Imaging Plate Reader) and FDSS6000™ (Functional Drug Screening System). This assay utilized a non-endogenous, constitutively active version of the MCH receptor.
# The FLIPR and FDSS assays are able to detect intracellular Ca^2+ concentration in cells, which can be utilized to assess receptor activation and determine whether a candidate compound is an, for example, antagonist, inverse agonist or agonist to a Gq-coupled receptor. The concentration of free Ca^2+ in the cytosol of any cell is extremely low, whereas its concentration in the extracellular fluid and endoplasmic reticulum (ER) is very high. Thus, there is a large gradient tending to drive Ca^2+ into the cytosol across both the plasma membrane and ER. The FLIPR™ and FDSS6000™ systems (Molecular Devices Corporation, HAMAMATSU Photonics K.K.) are designed to perform functional cell-based assays, such as the measurement of intracellular calcium for high-throughput screening. The measurement of fluorescent is associated with calcium release upon activation of the Gq-coupled receptors.
# Fluorometric Imaging Plate Reader system was used to allow for rapid, kinetic measurements of intracellular fluorescence in 96 well microplates (or 384 well microplates). Simultaneous measurements of fluorescence in all wells can be made by FLIPR or FDSS6000™ every second with high sensitivity and precision. These systems are ideal for measuring cell-based functional assays such as monitoring the intracellular calcium fluxes that occur within seconds after activation of the Gq coupled receptor.
# Briefly, the cells are seeded into 96 well at 5.5×10^4 cells/well with complete culture media (Dulbecco's Modified Eagle Medium with 10% fetal bovine serum, 2 mM L-glutamine, 1 mM sodium pyruvate and 0.5 mg/mL G418, pH 7.4) for the assay next day. On the day of assay, the media is removed and the cells are incubated with 100 μl of loading buffer (4 μM Fluo-4-AM in complete culture media containing 2.5 mM Probenicid, 0.5 mg/ml and 0.2% bovine serum albumin) in 5% CO2 incubator at 37° C. for 1 hr. The loading buffer is removed, and the cells are washed with wash buffer (Hank's Balanced Salt Solution containing 2.5 mM Probenicid, 20 mM HEPES, 0.5 mg/mL and 0.2% bovine serum albumin, pH 7.4). One hundred fifty μl of wash buffer containing various concentrations of test compound is added to the cells, and the cells are incubated in 5% CO2 incubator at 37° C. for 30 min. Fifty μl of wash buffer containing various concentration of MCH are added to each well, and transient changes in [Ca^2+]i evoked by MCH are monitored using the FLIPR or FDSS in 96 well plates at Ex. 488 nm and Em. 530 nm for 290 second. When antagonist activity of compound is tested, 50 nM of MCH is used.
# Use of FLIPR™ and FDSS6000™ can be accomplished by following manufacturer's instruction (Molecular Device Corporation and HAMAMATSU Photonics K.K.).
row,IC50,Compound
1,0.101 µM,"Cc1nc(N[C@H]2CC[C@@H](NC(=O)c3ccc(F)cc3)CC2)cc(N(C)C)n1 [Example 7, N-(cis-4-{[6-(Dimethylamino)-2-methylpyrimidin-4-yl]amino}cyclohexyl)-4-fluorobenzamide hydrochloride]"
2,0.026 µM,"Cc1nc(N[C@H]2CC[C@@H](NC(=O)c3cccc(Cl)c3)CC2)cc(N(C)C)n1 [Example 24, 3-Chloro-N-(cis-4-{[6-(dimethylamino)-2-methylpyrimidin-4-yl]amino}cyclohexyl)-benzamide hydrochloride]"

# Same assay, conditions: class by percent of control at 10^−7 M or by IC50; antagonist activity, 50 nM of MCH; read-out: class
row,Compound,IC50
1,"Cc1nc(N[C@H]2CC[C@@H](NC(=O)c3ccc(F)c(F)c3)CC2)cc(N(C)C)n1 [Example 5, N-(cis-4-{[6-(Dimethylamino)-2-methylpyrimidin-4-yl]amino}cyclohexyl)-3,4-difluorobenzamide hydrochloride]",< 0.05 µM
2,"Cc1nc(N[C@H]2CC[C@@H](NC(=O)c3ccc(F)c(Cl)c3)CC2)cc(N(C)C)n1 [Example 6, 3-Chloro-N-(cis-4-{[6-(dimethylamino)-2-methylpyrimidin-4-yl]amino}cyclohexyl)-4-fluorobenzamide hydrochloride]",< 0.05 µM
3,"Cc1nc(N[C@H]2CC[C@@H](NC(=O)c3ccc(F)cc3)CC2)cc(N(C)C)n1 [Example 7, N-(cis-4-{[6-(Dimethylamino)-2-methylpyrimidin-4-yl]amino}cyclohexyl)-4-fluorobenzamide hydrochloride]",0.05 to 0.2 µM
4,"Cc1nc(N[C@H]2CC[C@@H](NC(=O)c3ccc(Cl)c(Cl)c3)CC2)cc(N(C)C)n1 [Example 8, 3,4-Dichloro-N-(cis-4-{[6-(dimethylamino)-2-methylpyrimidin-4-yl]amino}cyclohexyl)-benzamide hydrochloride]",< 0.05 µM
5,"Cc1nc(N[C@H]2CC[C@@H](NC(=O)c3cc(F)cc(Cl)c3)CC2)cc(N(C)C)n1 [Example 10, 3-Chloro-N-(cis-4-{[6-(dimethylamino)-2-methylpyrimidin-4-yl]amino}cyclohexyl)-5-fluorobenzamide hydrochloride]",< 0.05 µM
6,"Cc1nc(N[C@H]2CC[C@@H](NC(=O)c3cc(F)c(F)c(F)c3)CC2)cc(N(C)C)n1 [Example 11, N-(cis-4-{[6-(Dimethylamino)-2-methylpyrimidin-4-yl]amino}cyclohexyl)-3,4,5-trifluorobenzamide hydrochloride]",< 0.05 µM
7,"Cc1nc(N[C@H]2CC[C@@H](NC(=O)c3cc(F)cc(F)c3)CC2)cc(N(C)C)n1 [Example 13, N-(cis-4-{[6-(Dimethylamino)-2-methylpyrimidin-4-yl]amino}cyclohexyl)-3,5-difluorobenzamide hydrochloride]",0.05 to 0.2 µM
8,"Cc1nc(N[C@H]2CC[C@@H](NC(=O)c3cc(Cl)cc(Cl)c3)CC2)cc(N(C)C)n1 [Example 21, 3,5-Dichloro-N-(cis-4-{[6-(dimethylamino)-2-methylpyrimidin-4-yl]amino}cyclohexyl)-benzamide hydrochloride]",< 0.05 µM
9,"Cc1nc(N[C@H]2CC[C@@H](NC(=O)c3ccccc3F)CC2)cc(N(C)C)n1 [Example 22, N-(cis-4-{[6-(Dimethylamino)-2-methylpyrimidin-4-yl]amino}cyclohexyl)-2-fluorobenzamide hydrochloride]",> 0.2 µM
10,"Cc1nc(N[C@H]2CC[C@@H](NC(=O)c3ccc(Cl)cc3)CC2)cc(N(C)C)n1 [Example 25, 4-Chloro-N-(cis-4-{[6-(dimethylamino)-2-methylpyrimidin-4-yl]amino}cyclohexyl)-benzamide hydrochloride]",0.05 to 0.2 µM
11,"Cc1nc(N[C@H]2CC[C@@H](NC(=O)c3cc(C(F)(F)F)cc(C(F)(F)F)c3)CC2)cc(N(C)C)n1 [Example 27, N-(cis-4-{([6-(Dimethylamino)-2-methylpyrimidin-4-yl]amino}cyclohexyl)-3,5-bis-(trifluoromethyl)benzamide hydrochloride]",0.05 to 0.2 µM

# The remaining lines, values ahead:
row,IC50,Compound
1,> 0.2 µM,"CN(C)c1cc(N[C@H]2CC[C@@H](NCc3ccc(Br)cc3OC(F)(F)F)CC2)ncn1 [Example 1, N′-(cis-4-{[4-Bromo-2-(trifluoromethoxy)benzyl]amino}cyclohexyl)-N,N-dimethylpyrimidine-4,6-diamine dihydrochloride]"
2,0.05 to 0.2 µM,"CN(C)c1cc(N[C@H]2CC[C@@H](NC(=O)c3ccc(F)c(F)c3)CC2)ncn1 [Example 2, N-(cis-4-{[6-(1-Dimethylamino)pyrimidin-4-yl]amino}cyclohexyl)-3,4-difluorobenzamide hydrochloride]"
3,> 0.2 µM,"CN(C)c1cc(NC[C@H]2CC[C@@H](NC(=O)c3ccc(F)c(F)c3)CC2)ncn1 [Example 3, N-[cis-4-({[6-(Dimethylamino)pyrimidin-4-yl]amino}methyl)cyclohexyl]-3,4-difluorobenzamide hydrochloride]"
4,> 0.2 µM,"CN(C)c1cc(N[C@H]2CC[C@@H](CNC(=O)c3ccc(F)c(F)c3)CC2)ncn1 [Example 4, N-[(cis-4-{[6-(Dimethylamino)pyrimidin-4-yl]amino}cyclohexyl)methyl]-3,4-difluorobenzamide hydrochloride]"
5,0.05 to 0.2 µM,"Cc1nc(N[C@H]2CC[C@@H](NC(=O)c3ccc(Cl)c(F)c3)CC2)cc(N(C)C)n1 [Example 9, 4-Chloro-N-(cis-4-{[6-(dimethylamino)-2-methylpyrimidin-4-yl]amino}cyclohexyl)-3-fluorobenzamide hydrochloride]"
6,0.05 to 0.2 µM,"Cc1nc(N[C@H]2CC[C@@H](NC(=O)c3cncc(Br)c3)CC2)cc(N(C)C)n1 [Example 12, 5-Bromo-N-(cis-4-{[6-(dimethylamino)-2-methylpyrimidin-4-yl]amino}cyclohexyl)-nicotinamide dihydrochloride]"
7,< 0.05 µM,"Cc1nc(N[C@H]2CC[C@@H](NC(=O)c3ccc(F)c(C(F)(F)F)c3)CC2)cc(N(C)C)n1 [Example 14, N-(cis-4-{[6-(Dimethylamino)-2-methylpyrimidin-4-yl]amino}cyclohexyl)-4-fluoro-3-(trifluoromethyl)benzamide hydrochloride]"
8,> 0.2 µM,"Cc1nc(N[C@H]2CC[C@@H](NC(=O)c3ccc(C(F)(F)F)c(F)c3)CC2)cc(N(C)C)n1 [Example 15, N-(cis-4-{[6-(Dimethylamino)-2-methylpyrimidin-4-yl]amino}cyclohexyl)-3-fluoro-4-(trifluoromethyl)benzamide hydrochloride]"
9,0.05 to 0.2 µM,"Cc1nc(N[C@H]2CC[C@@H](NC(=O)c3ccc(OC(F)(F)F)c(Cl)c3)CC2)cc(N(C)C)n1 [Example 16, 3-Chloro-N-(cis-4-{[6-(dimethylamino)-2-methylpyrimidin-4-yl]amino}cyclohexyl)-4-(trifluoromethoxy)benzamide hydrochloride]"
10,< 0.05 µM,"Cc1nc(N[C@H]2CC[C@@H](NC(=O)c3cccc(C(F)(F)F)c3)CC2)cc(N(C)C)n1 [Example 17, N-(cis-4-{[6-(Dimethylamino)-2-methylpyrimidin-4-yl]amino}cyclohexyl)-3-(trifluoromethyl)-benzamide hydrochloride]"
11,< 0.05 µM,"Cc1nc(N[C@H]2CC[C@@H](NC(=O)c3cccc(OC(F)(F)F)c3)CC2)cc(N(C)C)n1 [Example 18, N-(cis-4-{[6-(Dimethylamino)-2-methylpyrimidin-4-yl]amino}cyclohexyl)-3-(trifluoromethoxy)benzamide hydrochloride]"
12,> 0.2 µM,"Cc1nc(N[C@H]2CC[C@@H](NC(=O)c3ccc(C(F)(F)F)cc3)CC2)cc(N(C)C)n1 [Example 19, N-(cis-4-{[6-(Dimethylamino)-2-methylpyrimidin-4-yl]amino}cyclohexyl)-4-(trifluoromethyl)benzamide hydrochloride]"
13,> 0.2 µM,"Cc1nc(N[C@H]2CC[C@@H](NC(=O)c3ccc(OC(F)(F)F)cc3)CC2)cc(N(C)C)n1 [Example 20, N-(cis-4-{[6-(Dimethylamino)-2-methylpyrimidin-4-yl]amino}cyclohexyl)-4-(trifluoromethoxy)benzamide hydrochloride]"
14,0.05 to 0.2 µM,"Cc1nc(N[C@H]2CC[C@@H](NC(=O)c3cccc(F)c3)CC2)cc(N(C)C)n1 [Example 23, N-(cis-4-{[6-(Dimethylamino)-2-methylpyrimidin-4-yl]amino}cyclohexyl)-3-fluorobenzamide hydrochloride]"
15,< 0.05 µM,"Cc1nc(N[C@H]2CC[C@@H](NC(=O)c3cccc(Cl)c3)CC2)cc(N(C)C)n1 [Example 24, 3-Chloro-N-(cis-4-{[6-(dimethylamino)-2-methylpyrimidin-4-yl]amino}cyclohexyl)-benzamide hydrochloride]"
16,0.05 to 0.2 µM,"Cc1nc(N[C@H]2CC[C@@H](NC(=O)c3cc(F)cc(C(F)(F)F)c3)CC2)cc(N(C)C)n1 [Example 26, N-(cis-4-{[6-(Dimethylamino)-2-methylpyrimidin-4-yl]amino}cyclohexyl)-3-fluoro-5-(trifluoromethyl)benzamide hydrochloride]"
